The values that follow come from ChEMBL document CHEMBL4334438, “Discovery of novel glycogen synthase kinase-3α inhibitors: Structure-based virtual screening, preliminary SAR and biological evaluation for treatment of acute myeloid leukemia” (Eur J Med Chem, 2019).

In experiment [1] the target is Serine/threonine-protein kinase PAK 5 (Homo sapiens) (UniProt Q9P286). Kind of experiment: Inhibition of recombinant human PAK5 (425 to end residues) assessed as residual activity at 1 uM using RRRLSFAEPG as substrate measured after 40 mins in presence of [gamma33P]ATP by scintillation counting method relative to control.
Chain of Serine/threonine-protein kinase PAK 5 (Homo sapiens) (Q9P286 whole entry, looked up): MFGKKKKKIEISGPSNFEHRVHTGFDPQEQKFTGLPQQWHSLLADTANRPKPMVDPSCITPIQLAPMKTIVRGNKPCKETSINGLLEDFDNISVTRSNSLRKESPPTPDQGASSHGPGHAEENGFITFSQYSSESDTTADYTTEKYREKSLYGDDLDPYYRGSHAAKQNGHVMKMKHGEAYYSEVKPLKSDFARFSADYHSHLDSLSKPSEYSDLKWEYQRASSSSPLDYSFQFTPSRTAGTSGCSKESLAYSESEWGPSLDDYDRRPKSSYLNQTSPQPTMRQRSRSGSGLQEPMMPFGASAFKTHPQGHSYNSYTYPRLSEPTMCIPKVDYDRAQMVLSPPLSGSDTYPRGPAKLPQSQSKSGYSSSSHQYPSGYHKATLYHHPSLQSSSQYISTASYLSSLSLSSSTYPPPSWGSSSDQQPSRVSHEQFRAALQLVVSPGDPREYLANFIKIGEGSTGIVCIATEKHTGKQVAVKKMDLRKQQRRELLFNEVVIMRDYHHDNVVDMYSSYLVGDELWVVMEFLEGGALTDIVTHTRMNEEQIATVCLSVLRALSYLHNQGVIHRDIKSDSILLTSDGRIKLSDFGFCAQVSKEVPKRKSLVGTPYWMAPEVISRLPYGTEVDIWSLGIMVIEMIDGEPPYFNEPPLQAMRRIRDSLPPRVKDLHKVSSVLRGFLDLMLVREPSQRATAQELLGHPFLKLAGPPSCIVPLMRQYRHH
The target of experiment [2] is Rhodopsin kinase GRK1 (Homo sapiens) (UniProt Q15835). Kind of experiment: Inhibition of recombinant full length human GRK1 assessed as residual activity at 1 uM using KKKKERLLDDRHDSGLDSMKDEE as substrate at 40 mins in presence of [gamma-33ATP] by scintillation counting based radiometry assay relative to control.
Chain of Rhodopsin kinase GRK1 (Homo sapiens) (Q15835 whole entry, the tested form may be a part): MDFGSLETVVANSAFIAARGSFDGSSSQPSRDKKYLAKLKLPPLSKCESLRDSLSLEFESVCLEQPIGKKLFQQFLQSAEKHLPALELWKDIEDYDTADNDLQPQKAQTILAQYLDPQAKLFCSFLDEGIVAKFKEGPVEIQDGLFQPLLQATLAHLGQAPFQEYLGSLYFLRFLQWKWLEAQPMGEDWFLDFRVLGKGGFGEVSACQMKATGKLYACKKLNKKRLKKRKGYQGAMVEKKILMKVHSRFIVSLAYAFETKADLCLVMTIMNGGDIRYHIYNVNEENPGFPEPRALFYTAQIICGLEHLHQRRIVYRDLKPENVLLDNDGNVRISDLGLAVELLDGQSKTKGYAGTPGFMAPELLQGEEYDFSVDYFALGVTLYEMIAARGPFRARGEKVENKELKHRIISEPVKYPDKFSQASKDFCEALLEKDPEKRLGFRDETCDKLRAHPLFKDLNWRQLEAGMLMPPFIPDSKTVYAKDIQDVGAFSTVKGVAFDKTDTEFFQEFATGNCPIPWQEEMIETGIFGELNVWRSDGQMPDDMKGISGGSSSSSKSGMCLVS
The target in experiment [3] is Death-associated protein kinase 3 (Homo sapiens) (UniProt O43293). As to the kind of experiment: Inhibition of human ZIPK (1 to 290 residues) assessed as residual activity at 1 uM using KKLNRTLSFAEPG as substrate measured after 40 mins in presence of [gamma33P]ATP by scintillation counting method relative to control.
Experiment [4] concerns the target Serine/threonine-protein kinase 17A (Homo sapiens) (UniProt Q9UEE5). Kind of experiment: Inhibition of recombinant human DRAK1 assessed as residual activity at 1 uM using KKLNRTLSFAEPG as substrate at 40 mins in presence of [gamma-33ATP] by scintillation counting based radiometry assay relative to control.
Experiment [5] addresses Tyrosine-protein kinase Srms (Homo sapiens) (UniProt Q9H3Y6). As to the kind of experiment: Inhibition of human SRMS assessed as residual activity at 1 uM by radiometric method relative to control.
The target in experiment [6] is Testis-specific serine/threonine-protein kinase 4 (Homo sapiens) (UniProt Q6SA08). Kind of experiment: Inhibition of recombinant full-length human TSSK4 at 1 uM assessed as residual activity at 1 uM using KKLNRTLSFAEPG as substrate measured after 40 mins in presence of [gamma33P]ATP by scintillation counting method relative to control.
In experiment [7] the target is Serine/threonine-protein kinase 25 (Homo sapiens) (UniProt O00506). As to the kind of experiment: Inhibition of human STK25 (1 to 308 residues) assessed as residual activity at 1 uM using RLGRDKYKTLRQIRQ as substrate measured after 40 mins in presence of [gamma33P]ATP by scintillation counting method relative to control.
Chain of Serine/threonine-protein kinase 25 (Homo sapiens) (O00506 whole entry, looked up, the tested form may be a part): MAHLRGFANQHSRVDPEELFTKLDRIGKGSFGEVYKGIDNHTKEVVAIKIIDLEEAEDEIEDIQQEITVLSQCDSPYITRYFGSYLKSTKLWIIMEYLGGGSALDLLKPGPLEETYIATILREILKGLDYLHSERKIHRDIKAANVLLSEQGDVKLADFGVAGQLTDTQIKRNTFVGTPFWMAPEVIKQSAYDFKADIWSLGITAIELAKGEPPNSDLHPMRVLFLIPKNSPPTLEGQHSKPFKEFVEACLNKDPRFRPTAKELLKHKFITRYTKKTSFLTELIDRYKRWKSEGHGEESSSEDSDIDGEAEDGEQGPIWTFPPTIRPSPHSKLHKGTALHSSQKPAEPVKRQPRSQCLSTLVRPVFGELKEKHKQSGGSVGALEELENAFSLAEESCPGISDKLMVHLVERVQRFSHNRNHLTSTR
Experiment [8] has as its target Testis-specific serine/threonine-protein kinase 2 (Homo sapiens) (UniProt Q96PF2). As to the kind of experiment: Inhibition of recombinant full-length human TSSK2 at 1 uM assessed as residual activity at 1 uM using KKKVSRSGLYRSPSMPENLNRPR as substrate measured after 40 mins in presence of [gamma33P]ATP by scintillation counting method relative to control.
Experiment [9] is filed under the species Homo sapiens. Kind of experiment: Inhibition of recombinant full length human Aurora A I31F mutant assessed as residual activity at 1 uM using LRRASLG as substrate incubated for 40 mins in presence of [gamma-33ATP] by scintillation counting based radiometry assay relative to control.
Experiment [10] concerns the target Serine/threonine-protein kinase STK11 (Homo sapiens) (UniProt Q15831). Kind of experiment: Inhibition of recombinant human LKB1 assessed as residual activity at 1 uM using LSNLYHQGKFLQTFCGSPLYRRR as substrate after 40 mins in presence of [gamma-33ATP] by scintillation counting based radiometry assay relative to control.
In experiment [11] the target is Tyrosine-protein kinase ITK/TSK (Homo sapiens) (UniProt Q08881). As to the kind of experiment: Inhibition of human Itk (352 to 617 residues) assessed as residual activity at 1 uM using myelin basic protein as substrate after 40 mins by [gamma-33ATP] radiometric assay relative to control.
Chain of Tyrosine-protein kinase ITK/TSK (Homo sapiens) (Q08881 whole entry, the tested form may be a part): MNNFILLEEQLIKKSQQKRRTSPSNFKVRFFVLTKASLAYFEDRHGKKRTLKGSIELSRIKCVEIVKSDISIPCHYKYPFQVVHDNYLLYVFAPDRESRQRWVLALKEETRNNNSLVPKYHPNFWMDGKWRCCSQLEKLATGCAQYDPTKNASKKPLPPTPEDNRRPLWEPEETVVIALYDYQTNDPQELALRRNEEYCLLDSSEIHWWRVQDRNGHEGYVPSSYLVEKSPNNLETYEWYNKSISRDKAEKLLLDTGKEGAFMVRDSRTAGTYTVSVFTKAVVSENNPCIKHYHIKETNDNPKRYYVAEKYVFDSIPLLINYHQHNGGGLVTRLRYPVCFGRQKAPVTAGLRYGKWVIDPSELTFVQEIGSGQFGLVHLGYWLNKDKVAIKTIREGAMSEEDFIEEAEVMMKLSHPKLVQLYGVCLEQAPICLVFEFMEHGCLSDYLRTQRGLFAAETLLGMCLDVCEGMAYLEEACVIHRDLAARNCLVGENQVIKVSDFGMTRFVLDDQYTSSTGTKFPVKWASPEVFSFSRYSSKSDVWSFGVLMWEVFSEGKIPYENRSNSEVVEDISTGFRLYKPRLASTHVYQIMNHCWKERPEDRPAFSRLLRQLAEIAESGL
In experiment [12] the target is Tyrosine-protein kinase ZAP-70 (Homo sapiens) (UniProt P43403). Kind of experiment: Inhibition of recombinant full-length human ZAP70 at 1 uM assessed as residual activity at 1 uM using poly(Glu, Tyr) 4:1 as substrate measured after 40 mins in presence of [gamma33P]ATP by scintillation counting method relative to control.
Chain of Tyrosine-protein kinase ZAP-70 (Homo sapiens) (P43403 whole entry): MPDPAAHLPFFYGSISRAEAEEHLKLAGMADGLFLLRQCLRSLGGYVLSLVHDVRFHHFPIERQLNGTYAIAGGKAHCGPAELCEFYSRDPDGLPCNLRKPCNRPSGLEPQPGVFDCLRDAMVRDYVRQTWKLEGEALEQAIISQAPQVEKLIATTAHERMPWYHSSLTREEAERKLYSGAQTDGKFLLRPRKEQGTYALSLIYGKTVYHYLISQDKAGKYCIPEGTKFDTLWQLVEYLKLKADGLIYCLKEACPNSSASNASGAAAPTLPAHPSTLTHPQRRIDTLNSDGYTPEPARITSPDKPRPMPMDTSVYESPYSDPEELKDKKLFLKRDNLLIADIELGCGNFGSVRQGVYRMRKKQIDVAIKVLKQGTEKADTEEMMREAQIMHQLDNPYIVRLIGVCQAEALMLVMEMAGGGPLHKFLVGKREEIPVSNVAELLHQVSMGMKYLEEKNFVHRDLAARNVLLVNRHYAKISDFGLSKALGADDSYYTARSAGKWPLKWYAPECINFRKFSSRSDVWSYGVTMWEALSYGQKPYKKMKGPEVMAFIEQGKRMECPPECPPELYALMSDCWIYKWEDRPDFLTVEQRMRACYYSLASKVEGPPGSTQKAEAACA
Experiment [13] has as its target 3-phosphoinositide-dependent protein kinase 1 (Homo sapiens) (UniProt O15530). As to the kind of experiment: Inhibition of recombinant human PDK1 (52 to end residues) assessed as residual activity at 1 uM using PDKtide as substrate measured after 40 mins in presence of [gamma33P]ATP by scintillation counting method relative to control.
Experiment [14] concerns the target Serine/threonine-protein kinase ULK2 (Homo sapiens) (UniProt Q8IYT8). As to the kind of experiment: Inhibition of human ULK2 (1 to 306 residues) assessed as residual activity at 1 uM using casein as substrate measured after 40 mins in presence of [gamma33P]ATP by scintillation counting method relative to control.
Experiment [15] addresses Serine/threonine-protein kinase 16 (Homo sapiens) (UniProt O75716). As to the kind of experiment: Inhibition of human STK16 assessed as residual activity at 1 uM by radiometric method relative to control.
In experiment [16] the target is Interferon-induced, double-stranded RNA-activated protein kinase (Homo sapiens) (UniProt P19525). As to the kind of experiment: Inhibition of recombinant human PKR (252 to end residues) assessed as residual activity at 1 uM using RSRSRSRSRSRSRSR as substrate measured after 40 mins in presence of [gamma33P]ATP by scintillation counting method relative to control.

For experiment [17], the system named is PI3-kinase p110-alpha/p85-alpha (Homo sapiens), P27986+P42336 [E545K]. Kind of experiment: Inhibition of recombinant full-length human PI3K p110alpha E545K mutant/p85alpha assessed as residual activity at 1 uM assessed as residual activity at 1 uM using phosphatidylinositol-4, 5-bisphosphate as substrate incubated for 40 mins in presence of [gamma33P]ATP by scintillation counting based radiometry assay relative to control. Type of experiment: protein-complex assay.

Experiment [18] concerns Epidermal growth factor receptor (Homo sapiens), P00533 [L858R,T790M]. As to the kind of experiment: Inhibition of recombinant human EGFR T790M/L858R mutant (696 to end residues) assessed as residual activity at 1 uM using poly(Glu, Tyr) 4:1 as substrate at 40 mins in presence of [gamma-33ATP] by scintillation counting based radiometry assay relative to control.
The species named for experiment [19] is Homo sapiens. As to the kind of experiment: Inhibition of recombinant human Plk4 S34T mutant (1 to 273 residues) assessed as residual activity at 1 uM using casein as substrate measured after 40 mins in presence of [gamma33P]ATP by scintillation counting method relative to control.
Experiment [20] concerns the target Ribosomal protein S6 kinase alpha-3 (Homo sapiens) (UniProt P51812). Kind of experiment: Inhibition of recombinant human Rsk2 (2 to end residues) assessed as residual activity at 1 uM using KKKNRTLSVA as substrate measured after 40 mins in presence of [gamma33P]ATP by scintillation counting method relative to control.
The subject of experiment [21] is Tyrosine-protein kinase receptor UFO (Homo sapiens), P30530 [Q764R]. Kind of experiment: Inhibition of recombinant human Axl Q764R mutant (473 to end residues) assessed as residual activity at 1 uM using KKSRGDYMTMQIG as substrate incubated for 40 mins in presence of [gamma-33ATP] by scintillation counting based radiometry assay relative to control.
Experiment [22] addresses Calcium/calmodulin-dependent protein kinase kinase 1 (Homo sapiens) (UniProt Q8N5S9). Kind of experiment: Inhibition of recombinant full length human CaMKK1 assessed as residual activity at 1 uM […] incubated for 40 mins in presence of [gamma-33ATP] by scintillation counting based radiometry assay relative to control.

Chain of Testis-specific serine/threonine-protein kinase 2 (Homo sapiens) (Q96PF2 whole entry): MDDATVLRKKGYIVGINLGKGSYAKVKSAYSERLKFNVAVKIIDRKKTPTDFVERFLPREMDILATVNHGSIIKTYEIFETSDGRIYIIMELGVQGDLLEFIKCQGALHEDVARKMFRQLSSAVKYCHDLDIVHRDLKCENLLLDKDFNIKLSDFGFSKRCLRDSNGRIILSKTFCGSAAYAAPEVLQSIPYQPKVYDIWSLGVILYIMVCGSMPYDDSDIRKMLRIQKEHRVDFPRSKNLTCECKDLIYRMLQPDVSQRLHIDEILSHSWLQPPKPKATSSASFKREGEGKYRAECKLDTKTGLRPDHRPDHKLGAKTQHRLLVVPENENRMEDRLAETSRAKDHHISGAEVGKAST
Chain of Serine/threonine-protein kinase 17A (Homo sapiens) (Q9UEE5 whole entry): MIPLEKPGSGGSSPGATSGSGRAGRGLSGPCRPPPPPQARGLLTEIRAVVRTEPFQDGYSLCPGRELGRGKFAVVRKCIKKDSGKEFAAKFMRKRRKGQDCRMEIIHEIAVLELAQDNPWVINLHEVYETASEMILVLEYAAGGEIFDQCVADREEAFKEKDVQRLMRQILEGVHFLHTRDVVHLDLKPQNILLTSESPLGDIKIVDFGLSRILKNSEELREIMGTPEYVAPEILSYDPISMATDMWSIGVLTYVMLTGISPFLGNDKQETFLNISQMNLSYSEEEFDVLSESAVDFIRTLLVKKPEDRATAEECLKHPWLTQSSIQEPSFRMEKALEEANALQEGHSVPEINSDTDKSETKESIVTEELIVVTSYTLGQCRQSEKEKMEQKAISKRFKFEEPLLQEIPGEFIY
Chain of Calcium/calmodulin-dependent protein kinase kinase 1 (Homo sapiens) (Q8N5S9 whole entry, looked up): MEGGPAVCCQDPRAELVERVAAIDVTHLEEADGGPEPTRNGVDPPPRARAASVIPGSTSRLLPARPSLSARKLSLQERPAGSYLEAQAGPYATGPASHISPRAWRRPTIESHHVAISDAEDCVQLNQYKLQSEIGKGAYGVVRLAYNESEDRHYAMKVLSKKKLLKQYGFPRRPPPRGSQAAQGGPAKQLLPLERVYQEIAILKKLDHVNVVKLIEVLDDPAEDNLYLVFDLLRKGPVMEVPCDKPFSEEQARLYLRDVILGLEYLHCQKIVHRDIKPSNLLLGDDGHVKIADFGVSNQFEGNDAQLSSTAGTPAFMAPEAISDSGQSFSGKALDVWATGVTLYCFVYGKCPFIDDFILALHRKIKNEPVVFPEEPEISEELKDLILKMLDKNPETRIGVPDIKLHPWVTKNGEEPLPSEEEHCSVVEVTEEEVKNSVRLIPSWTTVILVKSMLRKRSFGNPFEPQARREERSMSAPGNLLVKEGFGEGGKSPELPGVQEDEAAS
Chain of Tyrosine-protein kinase Srms (Homo sapiens) (Q9H3Y6 whole entry): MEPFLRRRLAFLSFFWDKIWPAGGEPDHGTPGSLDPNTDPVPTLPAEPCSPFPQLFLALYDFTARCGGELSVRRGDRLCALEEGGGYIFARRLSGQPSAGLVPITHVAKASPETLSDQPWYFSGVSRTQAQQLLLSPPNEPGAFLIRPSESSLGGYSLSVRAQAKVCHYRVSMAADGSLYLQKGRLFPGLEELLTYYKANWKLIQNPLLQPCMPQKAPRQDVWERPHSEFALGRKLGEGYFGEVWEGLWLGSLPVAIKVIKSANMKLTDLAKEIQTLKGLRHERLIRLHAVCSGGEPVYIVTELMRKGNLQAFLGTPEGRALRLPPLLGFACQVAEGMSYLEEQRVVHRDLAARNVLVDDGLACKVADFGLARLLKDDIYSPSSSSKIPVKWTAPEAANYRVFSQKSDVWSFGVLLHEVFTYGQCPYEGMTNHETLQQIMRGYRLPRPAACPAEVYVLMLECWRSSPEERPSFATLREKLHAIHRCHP

`N=C1NC(=O)/C(=C\c2ccc(-c3cccc([N+](=O)[O-])c3)o2)S1`: the Activity in experiment [1] turned out to be 103%; in experiment [2] it was 97%; in [3] it was 93%; in experiment [4], 80%; in experiment [5] it was 95%; in [6] it was 102%. The Activity in [7] was found to be 97%; in [8] it was 108%; in the experiment listed under Homo sapiens [9], 101%; in [10] it was 37%; in experiment [11], 98%; in experiment [12], 106%. In addition, the Activity in experiment [13] was 96%; in [14], 102%; in experiment [15], 95%; in experiment [16], 98%; in [17], 100%; in experiment [18], 89%. The Activity in the experiment listed under Homo sapiens [19] came out at 83%; in experiment [20], 85%; in [21] it was 98%; in experiment [22] it was 92%.
Regarding `C=CCOC(=O)c1cc(-c2ccc(/C=C3/NC(=S)NC3=O)o2)ccc1Cl`, the Activity was 98% in experiment [1]; 104% in experiment [2]; 96% in experiment [3]; 83% in [4]; 114% in [5]; 121% in experiment [6]. Also, the Activity in experiment [7] stood at 90%; in experiment [8] it was 102%; in the experiment filed under Homo sapiens [9], 114%; in experiment [10] it was 93%; in experiment [11], 107%; in experiment [12], 107%. Besides, the Activity amounted to 87% in experiment [13]; 103% in [14]; 90% in [15]; 98% in experiment [16]; 92% in experiment [17]; 97% in experiment [18]. Moreover, the Activity came to 91% in the experiment listed under Homo sapiens [19], 112% in experiment [20], 101% in experiment [21] and 96% in [22].
